From US20230285598A1, “SULFOXONIUM YLIDE DERIVATIVES AS PROBES FOR CYSTEINE PROTEASE” (Takeda Pharmaceutical Company Limited, priority 2018, published 2023)

What was measured:
cathepsin X [1] = biological target: T1, cathepsin X (Mus musculus, UniProt Q9WUU7); test: Probe labeling of living RAW264.7 cells, in-gel fluorescence; format: cell-based; parameters: protein lysates prepared from RAW264.7 cells; host or cells: RAW264.7; conditions: Example 8; 0.1-5 µM for 2 hours
Method: AW cells or MDA-MB-231 ^HM cells were plated in 12-well plates. Where indicated, MDV-590 or vehicle was added at 10 µM from a 10 mM DMSO stock for overnight incubation. When the cell density reached 80%, the indicated probes were added at the indicated concentrations from a 1000x DMSO stock and allowed to incubate for the indicated time. Media was then removed and replaced with PBS. The cells were then scraped and transferred to tubes, and lysis and SDS-PAGE analysis were carried out as above, except skipping the probe addition step. […]
In Example 8, sulfoxonium ylide probes as prepared in accordance with Example 1 were applied to live RAW264.7 cells for two hours, in order to examine the potency and permeability of the sulfoxonium ylide probe series in living cells, and the results compared to BMV109.
The sulfoxonium ylide probes (and BMV109) were each added with increasing probe concentrations of 0.1 µM, 0.5 µM, 1 µM and 5 µM for 2 hours. […]

cathepsin X [2] = biological target: T1, cathepsin X; test: In vivo probe labeling in mice (intravenous), tissues analyzed by fluorescent SDS-PAGE; conditions: intravenous 50 nmol, two hours of circulation
Method: For in vivo labeled tissues, mice were first injected intravenously via the tail vein with sCy5-Nle-SY, BMV109, or sCy5-Nle-AOMK (50 nmol in 100 µl 10% DMSO/PBS or vehicle control). Tissues were harvested and analyzed as above except without further probe addition.
In Example 10, the probe sCy5-Nle-SY, vehicle control/no probe (NP) or BMV109 were injected into mice intravenously. After two hours of circulation, tissues were harvested, lysed, and analyzed for probe labeling by fluorescent SDS-PAGE.
In Example 12, the AOMK probe sCy5-Nle-AOMK was tested in vivo and its labeling in tissues was analyzed. The probe was injected into mice intravenously. After two hours of circulation, tissues were harvested, lysed, and analyzed for probe labeling by fluorescent SDS-PAGE.

cathepsin X [3] = biological target: T1, cathepsin X; test: Probe labeling of mouse splenic lysates (wildtype or cathepsin X-deficient), in-gel fluorescence; format: biochemical; conditions: probe 1 µM for 20 minutes
Method: (§1) issues were harvested from healthy mice and snap frozen. At the time of analysis, lysis buffer was added at 10x volume:weight, and tissues were sonicated on ice. Cleared lysates were labeled with the indicated probe and analyzed as above.
In Example 4, the ability of sCy5-Val-SY to label cathepsin X in mouse splenic lysates (from wildtype mice or cathepsin X-deficient mice) was tested (probe addition at 1 µM for 20 minutes).

cathepsin X [4] = biological target: T1, cathepsin X; test: Inhibition in live RAW264.7 cells, residual activity by sCy5-Val-SY labeling; format: cell-based; parameters: protein lysates prepared from RAW264.7 cells; host or cells: RAW264.7; conditions: 100 µM overnight pre-treatment, compared to controls
Method: To test the ability of sulfoxonium ylide compounds to act as cathepsin inhibitors, an unlabeled, boc-protected version of Val-SY, i.e. tert-butyl (S)-(1-(dimethyl(oxo)-λ ^6-sulfanylidene)-4-methyl-2-oxopentan-3-yl)carbamate (SJM-724-24) was used. Live RAW264.7 cells were pre-treated with Boc-Val-SY (0, 10 or 100 µM) overnight. Residual cathepsin X activity was measured by incubating the live cells with sCy5-Val-SY for two hours. Cells were lysed and labeled proteins were detected by in-gel fluorescence.

cathepsin S = biological target: T2, cathepsin S (Mus musculus, UniProt O70370); test: as above; format: cell-based; conditions: 100 µM overnight pre-treatment, compared to controls
T2 construct: Live RAW264.7 cells were pre-treated with Boc-Val-SY (0, 10 or 100 µM) overnight; host or cells: RAW264.7

cathepsin X [5] = biological target: cathepsin X (Homo sapiens, UniProt Q9UBR2); test: Probe labeling of live MDA-MB-231 HM cells, in-gel fluorescence; format: cell-based; parameters: cathepsin X in a human breast cancer line known to express very low levels of cathepsin S; host or cells: MDA-MB-231 HM; conditions: 0.1-5 µM, overnight incubation
Method: AW cells or MDA-MB-231 ^HM cells were plated in 12-well plates. Where indicated, MDV-590 or vehicle was added at 10 µM from a 10 mM DMSO stock for overnight incubation. When the cell density reached 80%, the indicated probes were added at the indicated concentrations from a 1000x DMSO stock and allowed to incubate for the indicated time. Media was then removed and replaced with PBS. The cells were then scraped and transferred to tubes, and lysis and SDS-PAGE analysis were carried out as above, except skipping the probe addition step.
In Example 9, the specificity of the sulfoxonium ylide probes for cathepsin X in a human breast cancer line known to express very low levels of cathepsin S, MDA-MB-231 ^HM (Chang et al., 2007) was tested, and the results compared to BMV109. The MDA-MB-231 ^HM cells also allowed to test whether the sulfoxonium ylide probes could bind to human cathepsin X (in addition to mouse cathepsin X shown previously).
The sulfoxonium ylide probes (and BMV109) were each added with increasing probe concentrations of 0.1 µM, 0.5 µM, 1 µM and 5 µM).

cathepsin X [6] = biological target: T1, cathepsin X; test: Probe labeling of RAW264.7 cell lysates, SDS-PAGE in-gel fluorescence; format: biochemical; parameters: protein lysates prepared from RAW264.7 cells; host or cells: RAW264.7
Method: ells were harvested by scraping, washed once with PBS, and resuspended in lysis buffer containing 50 mM citrate [pH 5.5], 0.5% CHAPS, 0.1% Triton X-100, and 4 mM DTT. Cells were incubated on ice for at least 10 minutes with intermittent vortexing followed by centrifugation ([…] at 4° C. or 5 minutes). Cleared supernatants were then transferred to a fresh tube and protein concentration was determined by BCA. Total protein (50 µg) was aliquoted into tubes in a final volume of 20 µl lysis buffer. Where indicated, JPM-OEt or MDV-590 were added from a 100x DMSO stock and incubated at 37° C. or 20 minutes prior to probe addition. The indicated concentration of probe was added from a 100x DMSO stock. Labeling was carried out at 37° C. or 20 minutes (unless otherwise indicated), and the reactions were quenched by the addition of 5x sample buffer (200 mM Tris-Cl [pH 6.8], 8% SDS, 0.04% bromophenol blue, 5% b-mercaptoethanol, and 40% glycerol). Samples were then boiled for five minutes and proteins were resolved on a 15% SDS-PAGE gel. The gels were scanned on a Typhoon 5 flatbed laser scanner at 633/670 nm excitation/emission to detect sCy5 fluorescence.
robe-labeled lysate from above (in sample buffer) was divided into input or pulldown (~50 µg total protein each). The input sample was stored at -20° C. The pulldown sample was diluted in 500 µl IP buffer (PBS [pH 7.4],[…], 1 mM EDTA). Goat anti-cathepsin X antibody (10 µl) was added along with 40 µl slurry of pre-washed Protein A/G agarose beads. Samples were rotated overnight at 4° C. Beads were then washed four times with IP buffer followed by a final wash in 0.9% NaCl. Beads were then resuspended in 2x sample buffer and boiled. The pulldown supernatants, alongside the input samples, were analysed by fluorescent SDS-PAGE as above.
In Example 3, the sulfoxonium ylide probe sCy5-Val-SY was incubated with protein lysates prepared from RAW264.7 cells, an immortalized mouse macrophage line that contains high levels of active cysteine cathepsins (Verdoes et al., 2013). Cells were lysed in citrate buffer (pH 5.5) to provide optimal conditions for cathepsin activation, and the probe was added • at 1 µM for 20 minutes • at various concentrations (0 µM, 0.01 µM, 0.05 µM, 0.1 µM, 0.5 µM or 1 µM) for 20 minutes; or • at 1 µM for varying times (0, 1, 2, 5, 10, 20, and 30 minutes).
Then the lysates were resolved by SDS-PAGE and the gel scanned for sCy5 fluorescence using a flatbed laser scanner.
The labeling profile of sCy5-Val-SY was compared to that of BMV109, the pan-cathepsin probe, by repeating the above experiment using BMV109 as the probe added at 1 µM for 20 minutes.
In Example 6, a small library of sulfoxonium ylide probes with varying amino acids in the P1 position as prepared in accordance with Example 1 was tested in RAW264.7 lysates, and compared to BMV109. Each probe was added with increasing probe concentrations of 0.01 µM, 0.05 µM, 0.1 µM, 0.5 µM, 1 µM and 5 µM for 20 minutes).

cathepsin X [7] = biological target: T1, cathepsin X; test: Probe labeling of kidney lysates, in-gel fluorescence; format: biochemical; conditions: 0.1-5 µM for 20 minutes
Method: as §1
In Example 7, sulfoxonium ylide probes as prepared in accordance with Example 1 were tested in kidney lysates and the results compared to BMV109. The sulfoxonium ylide probes (and BMV109) were each added with increasing probe concentrations of 0.1 µM, 0.5 µM, 1 µM and 5 µM for 20 minutes.

[8] = Example 6, 0.01-5 µM for 20 minutes

T1 sequence (Q9WUU7 64-306): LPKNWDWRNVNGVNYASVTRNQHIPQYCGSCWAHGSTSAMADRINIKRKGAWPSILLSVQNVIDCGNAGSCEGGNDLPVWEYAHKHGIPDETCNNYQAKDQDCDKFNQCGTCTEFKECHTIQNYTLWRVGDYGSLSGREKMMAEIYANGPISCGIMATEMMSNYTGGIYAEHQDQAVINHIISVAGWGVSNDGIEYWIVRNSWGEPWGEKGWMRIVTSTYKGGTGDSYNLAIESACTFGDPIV
cathepsin X (Homo sapiens, UniProt Q9UBR2), sequence (Q9UBR2 62-303): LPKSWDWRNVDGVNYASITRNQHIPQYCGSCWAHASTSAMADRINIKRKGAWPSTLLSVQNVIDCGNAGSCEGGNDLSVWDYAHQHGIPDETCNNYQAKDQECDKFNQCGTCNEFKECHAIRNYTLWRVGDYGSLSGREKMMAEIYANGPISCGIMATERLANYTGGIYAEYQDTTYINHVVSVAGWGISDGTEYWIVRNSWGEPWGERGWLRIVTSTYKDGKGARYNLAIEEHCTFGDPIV

CC[N+]1=C(/C=C/C=C/C=C2/N(CCCCCC(=O)N[C@@H](Cc3c[nH]c4ccccc34)C(=O)C=S(C)(C)=O)c3ccc(S(=O)(=O)O)cc3C2(C)C)C(C)(C)c2cc(S(=O)(=O)[O-])ccc21 [sCy5-Trp-SY]
cathepsins labeled in live RAW264.7 cells (cathepsin X [1]): labeled cathepsin X and S to similar extents and with similar potency

CC[N+]1=C(/C=C/C=C/C=C2\N(CCCCCC(=O)NCCCC[C@H](NC(=O)[C@H](Cc3ccccc3)NC(=O)OCc3ccccc3)C(=O)COc3c(F)c(F)c(C(=O)NCCNC(=O)C4CCN(S(=O)(=O)c5ccccc5-c5c6ccc(N7CCc8cc(S(=O)(=O)[O-])ccc87)cc6[o+]c6cc(N7CCc8cc(S(=O)(=O)O)ccc87)ccc56)CC4)c(F)c3F)c3ccc(S(=O)(=O)O)cc3C2(C)C)C(C)(C)c2cc(S(=O)(=O)[O-])ccc21 [BMV109, reference compound]
labeling of cathepsin S, B and L in tissues after in vivo administration (cathepsin X [2]): strongly labels cathepsin B and L
labeling in splenic lysates from wildtype mice (cathepsin X [3]): strongly labeled cathepsin B and to a lesser extent, cathepsin S and L

CCCC[C@H](NC(=O)CCCCN1/C(=C/C=C/C=C/C2=[N+](CC)c3ccc(S(=O)(=O)[O-])cc3C2(C)C)C(C)(C)c2cc(S(=O)(=O)O)ccc21)C(=O)COC(=O)c1c(C)cccc1C [sCy5-Nle-AOMK]
labeling of cathepsin S, B and L in tissues after in vivo administration (cathepsin X [2]): Only weak labeling of cathepsin B and S was observed in the colon, but not in other tissues examined

CC(C)[C@H](NC(=O)OC(C)(C)C)C(=O)C=S(C)(C)=O [Boc-Val-SY, tert-butyl (S)-(1-(dimethyl(oxo)-λ^6-sulfanylidene)-4-methyl-2-oxopentan-3-yl)carbamate]
reduction in cathepsin X (cathepsin X [4]): 71%
reduction in cathepsin S (cathepsin S): 51%

CC[N+]1=C(/C=C/C=C/C=C2/N(CCCCCC(=O)NCCCC[C@H](NC(=O)OCc3ccccc3)C(=O)C=S(C)(C)=O)c3ccc(S(=O)(=O)O)cc3C2(C)C)C(C)(C)c2cc(S(=O)(=O)[O-])ccc21 [Cbz-Lys(sCy5)-SY]
cross-reactivity with cathepsin B and L in live MDA-MB-231 HM cells (cathepsin X [5]): the most cross-reactivity with cathepsin B and L
specificity of labeling in RAW264.7 lysates (cathepsin X [6]; [8]): loss of specificity, favoring cathepsin S over X and B
potency and specificity of labeling in kidney lysates (cathepsin X [7]): broader reactivity
cathepsins labeled in live RAW264.7 cells (cathepsin X [1]): preference for cathepsin S

CC[N+]1=C(/C=C/C=C/C=C2/N(CCCCCC(=O)N[C@@H](Cc3ccccc3)C(=O)C=S(C)(C)=O)c3ccc(S(=O)(=O)O)cc3C2(C)C)C(C)(C)c2cc(S(=O)(=O)[O-])ccc21 [sCy5-Phe-SY]
potency and specificity of labeling in kidney lysates (cathepsin X [7]): broader reactivity
cathepsins labeled in live RAW264.7 cells (cathepsin X [1]): labeled cathepsin X and S to similar extents and with similar potency

CC[N+]1=C(/C=C/C=C/C=C2/N(CCCCCC(=O)N[C@@H](Cc3ccccc3)C(=O)N[C@H](C(=O)C=S(C)(C)=O)C(C)C)c3ccc(S(=O)(=O)O)cc3C2(C)C)C(C)(C)c2cc(S(=O)(=O)[O-])ccc21 [sCy5-Phe-Val-SY]
cross-reactivity with cathepsin B and L in live MDA-MB-231 HM cells (cathepsin X [5]): the most cross-reactivity with cathepsin B and L
potency of labeling in RAW264.7 lysates (cathepsin X [6]; [8]): improved potencies for cathepsin X and S compared to BMV109
specificity of labeling in RAW264.7 lysates (cathepsin X [6]; [8]): loss of specificity
potency and specificity of labeling in kidney lysates (cathepsin X [7]): broader reactivity
cathepsins labeled in live RAW264.7 cells (cathepsin X [1]): labeled cathepsin B and L in addition to cathepsin X and S

CC[N+]1=C(/C=C/C=C/C=C2/N(CCCCCC(=O)N[C@@H](CC(C)C)C(=O)C=S(C)(C)=O)c3ccc(S(=O)(=O)O)cc3C2(C)C)C(C)(C)c2cc(S(=O)(=O)[O-])ccc21 [sCy5-Leu-SY]
potency and specificity of labeling in kidney lysates (cathepsin X [7]): the most potency and specificity for cathepsin X
cathepsins labeled in live RAW264.7 cells (cathepsin X [1]): labeled cathepsin X and S to similar extents and with similar potency

JPM-OEt [reference compound]
competition for sCy5-Val-SY labeling by inhibitor pretreatment (cathepsin X [6]; RAW264.7 lysates pretreated with 10 µM inhibitor, then sCy5-Val-SY 1 µM 20 minutes): labeling was prevented
